# System: mouse skin
# Assay: Topical application to uninfected mouse skin
# Assay type: in vivo
# Details: repeated daily topical treatments of the skin
structure (smiles),measurement,value
CC[C@H](C)[C@H](N)C(=O)N[C@@H](CC(N)=O)C(=O)N[C@@H](CC(C)C)C(=O)N[C@@H](CCCCN)C(=O)N[C@@H](C)C(=O)N[C@@H](CC(C)C)C(=O)N[C@@H](C)C(=O)N[C@@H](C)C(=O)N[C@@H](CC(C)C)C(=O)N[C@@H](C)C(=O)N[C@@H](CCCCN)C(=O)N[C@@H](CCCCN)C(=O)N[C@H](C(=O)N[C@@H](CC(C)C)C(=O)O)[C@@H](C)CC [Mastoparan],Local or systemic adverse effects,did not observe any local or systemic adverse effects

# — publication PMC6314830 (Science Advances, 2019)
